Consider one molecule from patent US9533973B2, “Allosteric modulators of 5-hydroxytryptamine 2C receptor (5-HT2CR)” (THE BOARD OF REGENTS OF THE UNIVERSITY OF TEXAS SYSTEM, priority 2011, dated 2017).

The target of one series is T1, 5-HT2CR (Homo sapiens, UniProt P28335).
T1 sequence (P28335 33-458): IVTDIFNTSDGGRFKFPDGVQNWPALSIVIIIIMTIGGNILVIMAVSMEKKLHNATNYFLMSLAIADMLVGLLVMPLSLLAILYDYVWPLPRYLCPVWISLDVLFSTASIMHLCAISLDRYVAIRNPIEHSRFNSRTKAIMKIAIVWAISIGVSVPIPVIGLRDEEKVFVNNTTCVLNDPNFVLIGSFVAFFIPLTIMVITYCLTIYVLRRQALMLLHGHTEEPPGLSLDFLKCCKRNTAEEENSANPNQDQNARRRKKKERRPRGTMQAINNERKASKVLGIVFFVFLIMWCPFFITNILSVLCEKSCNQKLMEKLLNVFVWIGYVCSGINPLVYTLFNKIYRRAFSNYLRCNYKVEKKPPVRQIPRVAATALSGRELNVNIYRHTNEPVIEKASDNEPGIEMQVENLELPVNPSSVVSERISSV
Nature of the series: 5-HT induced intracellular calcium (Cai++) release assay in live 5-HT2CR-CHO cells. Also on record: expressed in transfected cells. To be noted: 5-HT2CR-CHO cells. The format is cell-based. On the procedure: Selected results for the biological characterization of the synthesized compounds can be found in Ding et al., ACS Chem. Neurosci., 3, 538-545, 2012, and also described herein. The biological activity is assessed using an intracellular calcium (Cai^++) release assay. The best-characterized intracellular signaling pathway of the 5-HT2CR is the activation of phospholipase C (PLCβ) via Gαq/11 proteins and the production of diacylglycerol (DAG) and inositol-1,4,5-trisphosphate (IP3), leading to increased Cai^++ release from intracellular stores (Berg et al., Neuropharmacology 55, 969-76, 2008). Functional characterization of our synthetic PNU-69176E (CYD-1-78-2) and its diastereomer CYD-1-78-1 was determined by utilizing an Cai^++ release assay in live cells in which Cai^++ levels can be regarded as an outcome measure of activation of the 5-HT2CR signaling pathway (Berg et al., Neuropharmacology 55, 969-76, 2008). […] In addition, 1 nM of compound CYD-1-78-2 enhanced the Cai^++ response at low concentrations of 5-HT [10^11-3×10^−10 M; F(15,55)=16.73, p<0.01; FIG. 2]. […] Neither compound CYD-1-78-2 [F(10,68)=0.81, n.s.] nor the diastereomer CYD-1-78-1 [F(10,34)=0.76, n.s.] in concentrations up to 10^−5 M induced Cai^++ release in the 5-HT2CR—CHO cells in the absence of 5-HT (FIG. 3). This profile for compounds CYD-1-78-2 and −1 in 5-HT2CR—CHO cells was distinguished from that seen in 5-HT2AR—CHO cells in which neither compound alone or in the presence of 5-HT (compound CYD-1-78-1, F(10,43)=0.78; compound CYD-1-78-2, F(10,55)=1.27; FIG. 4) altered Cai^++ release (Ding et al., ACS Chem. Neurosci. 3, 538-545, 2012).
The Chinese hamster ovary (CHO) cell line stably transfected with 5-HT2CR was a generous gift of K. Berg and W. Clarke (University of Texas Health Science Center, San Antonio) (K. A. Berg, W. P. Clarke, C. Sailstad, A. Saltzman and S. Maayani, Mol. Pharmacol. 1994, 46 (3), 477-484; Ding et al., ACS Chem. Neurosci. 3, 538-545, 2012). Cells were grown at 37° C., 5% CO2 and 85% relative humidity in GlutaMax α-MEM (Invitrogen, Carlsbad Calif.), 5% fetal bovine serum (Atlanta Biologicals, Atlanta Ga.), 100 μg/mL hygromycin (Mediatech, Manassas Va.) and were passaged when they reached 80% confluence.
Changes in Cai^++ levels were determined using the calcium sensitive dye Calcium 4 (FLIPR No-wash kit, Molecular Devices, Sunnyvale, Calif., part #R8142). Cells were plated in serum-replete medium at 20,000 cells/well in black-sided, clear bottom 96-well tissue culture plates and were fed ˜24 hrs later with serum-free medium. Following overnight incubation, medium was removed and replaced with 40 μL of fresh serum-free medium plus 40 μL Calcium 4 dye solution in Hank's balanced saline solution (HBSS, without CaCl2 or MgCl2) supplemented with 2.5 mM water soluble probenicid (Invitrogen) to inhibit extracellular transport of the dye. Plates were incubated for 60 min at 37° C. and 60 min at room temperature in the dark. Fluorescence (λex=485 nm, λem=525 nm) was measured with a FlexStation3 (Molecular Devices). A baseline was established for each well during the initial segment of each run. Addition of 20 μL of 5× concentrated tested compound occurred at 17 sec and fluorescence was recorded every 1.7 sec for 90 sec to determine any innate agonist activity. This first round of 90 sec recordings provided a 20 min preincubation period. […] Maximum peak height was determined by the FlexStation software (SoftMax Pro 5.2) for each well and was normalized to vehicle control.
In general terms: Calcium flux is commonly read through the fluorescence of an indicator in the cells.

Series [1] is described as follows: Solubility of representative compounds (Table 1). To be noted: solvents listed. The format is physicochemical.

A word on the EC50: it is the midpoint of the concentration-response curve.

Molecules are shown by their SMILES. “Also recorded” adds a separate entry of the source.

Regarding `CS[C@H]1OC([C@@H](NC(=O)C2CNCCN2c2ccccc2)[C@H](C)Cl)[C@H](O)[C@H](O)[C@H]1O` (stereo partly drawn) [CYD-1-82, 1-Phenyl-piperazine-2-carboxylic acid [2-chloro-1-(3,4,5-trihydroxy-6-methylsulfanyl-tetrahydro-pyran-2-yl)-propyl]amide], the “effect on 5-HT-induced Cai++ release” value at 5-HT2CR (positive allosteric modulation) is on record as “enhanced; also recorded: potentiated”. The EC50 at 5-HT2CR (5-HT-induced Cai++ release) is 8 ± 4 nM. Moreover, in series [1], the Solubility result is listed as “EtOH, DMSO”.
